Test results published in ChEMBL document CHEMBL1129999, “Modeling, chemistry, and biology of the benzolactam analogues of indolactam V (ILV). 2. Identification of the binding site of the benzolactams in the CRD2 activator-binding domain of PKCdelta and discovery of an ILV analogue of improved isozyme selectivity” (J Med Chem, 1997).

Assays:
[1] = target: Protein kinase C alpha type (Homo sapiens, UniProt P17252); assay: Displacement of [3H]- PDBu from recombinant PKC alpha expressed in baculovirus
[2] = target: T1, Protein kinase C delta type (Homo sapiens, UniProt Q05655); assay: Inhibition of [3H]-PDBu binding to PKC delta mutant Leu 24-Gly (No binding)
Target sequence in this assay (Q05655 whole entry, looked up): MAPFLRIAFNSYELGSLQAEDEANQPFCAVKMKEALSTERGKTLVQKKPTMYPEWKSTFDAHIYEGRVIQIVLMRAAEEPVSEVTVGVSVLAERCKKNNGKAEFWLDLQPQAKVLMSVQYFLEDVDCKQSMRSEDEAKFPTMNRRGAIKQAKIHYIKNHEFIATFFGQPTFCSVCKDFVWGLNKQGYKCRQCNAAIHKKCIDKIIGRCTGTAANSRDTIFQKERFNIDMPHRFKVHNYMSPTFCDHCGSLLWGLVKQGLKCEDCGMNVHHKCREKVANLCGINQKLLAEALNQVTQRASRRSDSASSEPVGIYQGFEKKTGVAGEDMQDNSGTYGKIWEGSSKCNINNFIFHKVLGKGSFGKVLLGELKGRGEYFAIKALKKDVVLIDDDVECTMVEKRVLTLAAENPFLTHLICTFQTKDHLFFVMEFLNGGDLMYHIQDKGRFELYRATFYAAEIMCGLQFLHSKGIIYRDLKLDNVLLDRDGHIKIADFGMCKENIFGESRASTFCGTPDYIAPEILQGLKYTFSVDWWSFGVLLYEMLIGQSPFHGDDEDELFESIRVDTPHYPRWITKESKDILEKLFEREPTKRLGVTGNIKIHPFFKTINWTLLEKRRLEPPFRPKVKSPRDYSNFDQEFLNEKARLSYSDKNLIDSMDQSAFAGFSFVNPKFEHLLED

[3] = target: T1, Protein kinase C delta type; assay: Inhibition of [3H]PDBu binding to PKC delta mutant Gln 27-Gly (No binding)
Target sequence in this assay (Q05655 whole entry, looked up): as above

[4] = target: Protein kinase C gamma type (Homo sapiens, UniProt P05129); assay: Displacement of [3H]- PDBu from recombinant PKC gamma expressed in baculovirus
[5] = target: T2, Protein kinase C epsilon type (Homo sapiens, UniProt Q02156); assay: Displacement of [3H]- PDBu from recombinant PKC epsilon expressed in baculovirus
T2 sequence (Q02156 whole entry): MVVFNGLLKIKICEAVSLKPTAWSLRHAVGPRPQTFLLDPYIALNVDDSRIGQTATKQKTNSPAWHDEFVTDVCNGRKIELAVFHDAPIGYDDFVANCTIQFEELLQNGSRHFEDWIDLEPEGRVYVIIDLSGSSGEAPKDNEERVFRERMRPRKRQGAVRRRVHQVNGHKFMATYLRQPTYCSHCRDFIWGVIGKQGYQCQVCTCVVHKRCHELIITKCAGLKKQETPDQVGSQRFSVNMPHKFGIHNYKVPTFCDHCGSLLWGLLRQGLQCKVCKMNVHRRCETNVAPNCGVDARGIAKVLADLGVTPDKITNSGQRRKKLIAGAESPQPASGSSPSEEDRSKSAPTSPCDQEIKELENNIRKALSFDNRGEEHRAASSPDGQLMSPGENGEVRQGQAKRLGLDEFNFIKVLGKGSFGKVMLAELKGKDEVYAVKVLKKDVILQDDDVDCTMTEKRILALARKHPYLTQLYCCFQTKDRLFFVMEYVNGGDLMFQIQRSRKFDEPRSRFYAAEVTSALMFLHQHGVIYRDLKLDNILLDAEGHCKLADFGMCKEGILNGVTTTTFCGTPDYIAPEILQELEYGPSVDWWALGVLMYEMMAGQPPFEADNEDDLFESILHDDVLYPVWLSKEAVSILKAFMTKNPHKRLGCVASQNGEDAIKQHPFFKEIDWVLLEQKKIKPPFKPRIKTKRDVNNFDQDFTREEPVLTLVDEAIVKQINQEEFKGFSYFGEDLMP

[6] = target: T1, Protein kinase C delta type; assay: Displacement of [3H]- PDBu from recombinant PKC delta expressed in baculovirus
Target sequence in this assay (Q05655 whole entry): as the sequence (Q05655 whole entry, looked up) above

[7] = target: Protein kinase C beta type (Homo sapiens, UniProt P05771); assay: Displacement of [3H]- PDBu from recombinant PKC beta expressed in baculovirus
Sequence of Protein kinase C beta type (P05771 whole entry): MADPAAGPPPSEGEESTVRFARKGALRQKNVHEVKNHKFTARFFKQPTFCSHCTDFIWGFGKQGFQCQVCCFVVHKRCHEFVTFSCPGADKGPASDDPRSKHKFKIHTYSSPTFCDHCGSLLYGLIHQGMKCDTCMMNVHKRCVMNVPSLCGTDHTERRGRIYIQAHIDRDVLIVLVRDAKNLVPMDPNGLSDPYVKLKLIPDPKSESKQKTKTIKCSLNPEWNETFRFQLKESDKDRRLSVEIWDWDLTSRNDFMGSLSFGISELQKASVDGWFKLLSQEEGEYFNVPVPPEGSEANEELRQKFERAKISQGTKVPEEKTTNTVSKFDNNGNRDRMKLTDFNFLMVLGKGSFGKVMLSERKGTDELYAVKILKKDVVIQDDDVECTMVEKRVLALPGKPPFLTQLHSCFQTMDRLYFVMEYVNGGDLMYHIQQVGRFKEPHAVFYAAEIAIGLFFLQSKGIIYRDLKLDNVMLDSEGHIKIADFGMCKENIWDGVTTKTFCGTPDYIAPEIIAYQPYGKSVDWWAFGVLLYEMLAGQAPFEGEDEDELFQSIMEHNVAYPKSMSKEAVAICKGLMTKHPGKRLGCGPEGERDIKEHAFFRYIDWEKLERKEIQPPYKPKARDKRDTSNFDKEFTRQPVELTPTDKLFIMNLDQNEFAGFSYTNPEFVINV

[8] = target: T1, Protein kinase C delta type; assay: Inhibition of [3H]-PDBu binding to PKC delta mutant Gln 27-Val
Target sequence in this assay (Q05655 whole entry, looked up): as the sequence (Q05655 whole entry, looked up) above

[9] = target: T1, Protein kinase C delta type; assay: Inhibition of [3H]PDBu binding to PKC delta wild type
Target sequence in this assay (Q05655 whole entry): as the sequence (Q05655 whole entry, looked up) above

[10] = target: T1, Protein kinase C delta type; assay: Inhibition of [3H]PDBu binding to PKC delta mutant Pro 11-Gly
Target sequence in this assay (Q05655 whole entry, looked up): as above

[11] = target: T1, Protein kinase C delta type; assay: Inhibition of [3H]PDBu binding to PKC delta mutant Leu 20-Gly
Target sequence in this assay (Q05655 whole entry, looked up): as above

SMILES	Ki [1] [nM]	Ki [2]	Ki [3]	Ki [4] [nM]	Ki [5] [nM]	Ki [6] [nM]	Ki [7] [nM]	Ki [8] [nM]	Ki [9] [nM]	Ki [10] [nM]	Ki [11] [nM]
CC(C)[C@H]1C(=O)N[C@H](CO)Cc2ccccc2N1C	334	–	–	–	–	–	–	–	–	–	–
CCCC(=O)O[C@@H]1[C@@H](C)[C@@]2(O)[C@@H](C=C(CO)C[C@]3(O)C(=O)C(C)=C[C@@H]23)[C@@H]2C(C)(C)[C@]12OC(=O)CCC	–	Not Active	Not Active	–	–	–	–	–	–	–	–
CCCCCCCCCCc1ccc2c(c1)C[C@@H](CO)NC(=O)[C@H](C(C)C)N2C	46.6	–	–	122	187	142	–	–	–	–	–
CCCCCCCCc1ccc2c3c(c[nH]c13)C[C@@H](CO)NC(=O)[C@H](C(C)C)N2C	0.5	–	–	1.2	1	0.8	0.4	–	–	–	–
CCCCCCCCC#Cc1ccc2c(c1)C[C@@H](CO)NC(=O)[C@H](C(C)C)N2C	14.7	–	–	40.7	142	122	17.4	933	10.7	730	134
CC(C)[C@H]1C(=O)N[C@H](CO)Cc2c[nH]c3cccc(c23)N1C [INDOLACTUM]	–	–	–	19.4	21.9	8.2	6.1	–	–	–	–
